Test system: 885724-159-R-J1-PDC complex spheroid viability
Assay: Anticancer human tumor 885724-159-R-J1-PDC patient-derived pancreatic adenocarcinoma cell line growth inhibition [GQUAD]
Conditions: for IC50: curve of first compound; for viability, T/C: stronger effect = lower value
Outline: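 Viability of tumor cells grown as complex spheroids with endothelial and stromal cells, exposed to drug combinations. Top concentration at or near clinical Cmax (else 10 microM), diluted in half-log increments.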

[1] = second compound 0.0316 µM, first compound 0.0316 µM
[2] = second compound 0.0316 µM, first compound 0.1 µM
[3] = second compound 0.0316 µM, first compound 0.316 µM
[4] = second compound 0.0316 µM, first compound 1 µM
[5] = second compound 0.0316 µM, first compound 3.16 µM
[6] = second compound 0.0316 µM, first compound 10 µM
[7] = second compound 0.1 µM, first compound 0.0316 µM
[8] = second compound 0.1 µM, first compound 0.1 µM
[9] = second compound 0.1 µM, first compound 0.316 µM
[10] = second compound 0.1 µM, first compound 1 µM
[11] = second compound 0.1 µM, first compound 3.16 µM
[12] = second compound 0.1 µM, first compound 10 µM
[13] = second compound 0.316 µM, first compound 0.0316 µM
[14] = second compound 0.316 µM, first compound 0.1 µM
[15] = second compound 0.316 µM, first compound 0.316 µM
[16] = second compound 0.316 µM, first compound 1 µM
[17] = second compound 0.316 µM, first compound 3.16 µM
[18] = second compound 0.316 µM, first compound 10 µM
[19] = second compound 1 µM, first compound 0.0316 µM
[20] = second compound 1 µM, first compound 0.1 µM
[21] = second compound 1 µM, first compound 0.316 µM
[22] = second compound 1 µM, first compound 1 µM
[23] = second compound 1 µM, first compound 3.16 µM
[24] = second compound 1 µM, first compound 10 µM
[25] = second compound 3.16 µM, first compound 0.0316 µM
[26] = second compound 3.16 µM, first compound 0.1 µM
[27] = second compound 3.16 µM, first compound 0.316 µM
[28] = second compound 3.16 µM, first compound 1 µM
[29] = second compound 3.16 µM, first compound 3.16 µM
[30] = second compound 3.16 µM, first compound 10 µM
[31] = second compound 10 µM, first compound 0.0316 µM
[32] = second compound 10 µM, first compound 0.1 µM
[33] = second compound 10 µM, first compound 0.316 µM
[34] = second compound 10 µM, first compound 1 µM
[35] = second compound 10 µM, first compound 3.16 µM
[36] = second compound 10 µM, first compound 10 µM
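Note: spheroids exposed to agents for seven days before readout.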
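Throughout, for viability, T/C: percent of vehicle control viability where 100% = DMSO wells.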

Question: For `CC1COCCN1c1cc(C2(S(C)(=N)=O)CC2)nc(-c2ccnc3[nH]ccc23)n1` (stereo unspecified) + CN(C)c1ccc(Nc2c3ccc(NC(=O)CCN4CCCC4)cc3nc3cc(NC(=O)CCN4CCCC4)ccc23)cc1, which IC50 (second compound 0.0316 µM) is on record?
Answer: The IC50 was over 10 µM.

Question: And the IC50 (second compound 0.1 µM)?
Answer: Its IC50 is over 10 µM.

Question: And the IC50 (second compound 0.316 µM)?
Answer: The IC50 was over 10 µM.

Question: What about the IC50 (second compound 1 µM) of the same molecule?
Answer: The IC50 was over 10 µM.

Question: And the IC50 (second compound 3.16 µM)?
Answer: Its IC50 is over 10 µM.

Question: And the IC50 (second compound 10 µM)?
Answer: Its IC50 is over 10 µM.

Question: What about the viability, T/C [1] of the same molecule?
Answer: Its viability, T/C is 102%.

Question: What about the viability, T/C [2] of the same molecule?
Answer: The viability, T/C was 106%.

Question: What about the viability, T/C [3] of the same molecule?
Answer: The viability, T/C was 98.1%.

Question: And the viability, T/C [4]?
Answer: Its viability, T/C is 98.6%.

Question: And the viability, T/C [5]?
Answer: Its viability, T/C is 69.1%.

Question: What about the viability, T/C [6] of the same molecule?
Answer: Its viability, T/C is 79.6%.

Question: And the viability, T/C [7]?
Answer: Its viability, T/C is 87.7%.

Question: And the viability, T/C [8]?
Answer: Its viability, T/C is 93.7%.

Question: And the viability, T/C [9]?
Answer: Its viability, T/C is 82%.

Question: And the viability, T/C [10]?
Answer: The viability, T/C was 87%.

Question: And the viability, T/C [11]?
Answer: The viability, T/C was 79.3%.

Question: What about the viability, T/C [12] of the same molecule?
Answer: Its viability, T/C is 75.3%.

Question: What about the viability, T/C [13] of the same molecule?
Answer: The viability, T/C was 84.5%.

Question: What about the viability, T/C [14] of the same molecule?
Answer: Its viability, T/C is 89.6%.

Question: What about the viability, T/C [15] of the same molecule?
Answer: The viability, T/C was 92.3%.

Question: And the viability, T/C [16]?
Answer: Its viability, T/C is 75%.

Question: And the viability, T/C [17]?
Answer: Its viability, T/C is 80%.

Question: And the viability, T/C [18]?
Answer: Its viability, T/C is 63.9%.

Question: What about the viability, T/C [19] of the same molecule?
Answer: The viability, T/C was 89.4%.

Question: And the viability, T/C [20]?
Answer: Its viability, T/C is 74.3%.

Question: And the viability, T/C [21]?
Answer: The viability, T/C was 76.3%.

Question: And the viability, T/C [22]?
Answer: Its viability, T/C is 73.2%.

Question: What about the viability, T/C [23] of the same molecule?
Answer: The viability, T/C was 76.8%.

Question: What about the viability, T/C [24] of the same molecule?
Answer: The viability, T/C was 53%.

Question: What about the viability, T/C [25] of the same molecule?
Answer: Its viability, T/C is 76.3%.

Question: What about the viability, T/C [26] of the same molecule?
Answer: The viability, T/C was 65.1%.

Question: And the viability, T/C [27]?
Answer: Its viability, T/C is 65.3%.

Question: What about the viability, T/C [28] of the same molecule?
Answer: Its viability, T/C is 64%.

Question: What about the viability, T/C [29] of the same molecule?
Answer: The viability, T/C was 73%.

Question: And the viability, T/C [30]?
Answer: The viability, T/C was 51.6%.

Question: What about the viability, T/C [31] of the same molecule?
Answer: Its viability, T/C is 71.9%.

Question: What about the viability, T/C [32] of the same molecule?
Answer: The viability, T/C was 81.8%.

Question: What about the viability, T/C [33] of the same molecule?
Answer: The viability, T/C was 85.4%.

Question: And the viability, T/C [34]?
Answer: Its viability, T/C is 67%.

Question: What about the viability, T/C [35] of the same molecule?
Answer: The viability, T/C was 71.9%.

Question: What about the viability, T/C [36] of the same molecule?
Answer: Its viability, T/C is 63%.

Question: What does the source list for `Nc1ccn(C2OC(CO)C(O)C2(F)F)c(=O)n1` (stereo unspecified) + Cc1cnc(CNC(=O)c2c(=O)c3ccc(N4CCCN(C)CC4)nc3n3c2sc2ccccc23)cn1?
Answer: IC50 (second compound 0.0316 µM): > 10 µM; IC50 (second compound 0.1 µM): > 10 µM; IC50 (second compound 0.316 µM): > 10 µM; IC50 (second compound 1 µM): > 10 µM; IC50 (second compound 3.16 µM): > 10 µM; IC50 (second compound 10 µM): > 10 µM; viability, T/C [1]: 105%; viability, T/C [2]: 104%; viability, T/C [3]: 82%; viability, T/C [4]: 98.1%; viability, T/C [5]: 74.9%; viability, T/C [6]: 70.3%; viability, T/C [7]: 96.8%; viability, T/C [8]: 113%; viability, T/C [9]: 82.9%; viability, T/C [10]: 82.4%; viability, T/C [11]: 81.5%; viability, T/C [12]: 84.4%; viability, T/C [13]: 97%; viability, T/C [14]: 97.9%; viability, T/C [15]: 88.6%; viability, T/C [16]: 78.3%; viability, T/C [17]: 89.9%; viability, T/C [18]: 78.8%; viability, T/C [19]: 85.5%; viability, T/C [20]: 87.4%; viability, T/C [21]: 80.2%; viability, T/C [22]: 77%; viability, T/C [23]: 69.2%; viability, T/C [24]: 70.6%; viability, T/C [25]: 75%; viability, T/C [26]: 76.3%; viability, T/C [27]: 78%; viability, T/C [28]: 62.9%; viability, T/C [29]: 70.9%; viability, T/C [30]: 68.4%; viability, T/C [31]: 72.4%; viability, T/C [32]: 75.1%; viability, T/C [33]: 71.4%; viability, T/C [34]: 69.2%; viability, T/C [35]: 70.9%; viability, T/C [36]: 74.8%

Question: Which results are given for `Cc1[nH]c2ccccc2c1CCNCc1ccc(/C=C/C(=O)NO)cc1` + CN(C)c1ccc(Nc2c3ccc(NC(=O)CCN4CCCC4)cc3nc3cc(NC(=O)CCN4CCCC4)ccc23)cc1?
Answer: IC50 (second compound 0.0316 µM): > 0.316 µM; IC50 (second compound 0.1 µM): > 0.316 µM; IC50 (second compound 0.316 µM): 0.286 µM; IC50 (second compound 1 µM): 0.214 µM; IC50 (second compound 3.16 µM): 0.0929 µM; IC50 (second compound 10 µM): 0.152 µM; viability, T/C (second compound 0.0316 µM, first compound 0.000999 µM): 103%; viability, T/C (second compound 0.0316 µM, first compound 0.00316 µM): 98.3%; viability, T/C (second compound 0.0316 µM, first compound 0.00999 µM): 93.1%; viability, T/C [1]: 96.9%; viability, T/C (second compound 0.0316 µM, first compound 0.0999 µM): 124%; viability, T/C [3]: 60.1%; viability, T/C (second compound 0.1 µM, first compound 0.000999 µM): 99.8%; viability, T/C (second compound 0.1 µM, first compound 0.00316 µM): 91.7%; viability, T/C (second compound 0.1 µM, first compound 0.00999 µM): 95%; viability, T/C [7]: 125%; viability, T/C (second compound 0.1 µM, first compound 0.0999 µM): 105%; viability, T/C [9]: 54.1%; viability, T/C (second compound 0.316 µM, first compound 0.000999 µM): 84.7%; viability, T/C (second compound 0.316 µM, first compound 0.00316 µM): 94%; viability, T/C (second compound 0.316 µM, first compound 0.00999 µM): 95.3%; viability, T/C [13]: 84.6%; viability, T/C (second compound 0.316 µM, first compound 0.0999 µM): 112%; viability, T/C [15]: 45.7%; viability, T/C (second compound 1 µM, first compound 0.000999 µM): 90.3%; viability, T/C (second compound 1 µM, first compound 0.00316 µM): 75.6%; viability, T/C (second compound 1 µM, first compound 0.00999 µM): 75.5%; viability, T/C [19]: 77.5%; viability, T/C (second compound 1 µM, first compound 0.0999 µM): 69.8%; viability, T/C [21]: 40.3%; viability, T/C (second compound 3.16 µM, first compound 0.000999 µM): 65.2%; viability, T/C (second compound 3.16 µM, first compound 0.00316 µM): 81.4%; viability, T/C (second compound 3.16 µM, first compound 0.00999 µM): 82.1%; viability, T/C [25]: 73.1%; viability, T/C (second compound 3.16 µM, first compound 0.0999 µM): 48.5%; viability, T/C [27]: 40.1%; viability, T/C (second compound 10 µM, first compound 0.000999 µM): 65%; viability, T/C (second compound 10 µM, first compound 0.00316 µM): 58.3%; viability, T/C (second compound 10 µM, first compound 0.00999 µM): 59.6%; viability, T/C [31]: 55.6%; viability, T/C (second compound 10 µM, first compound 0.0999 µM): 69.3%; viability, T/C [33]: 30%

— PubChem BioAssay AID2060502 (Molecular Pharmacology Branch, DTP, NCI, 2025)
